# Results published in patent publication US10844052B2, “LLS compounds for treatment of cancer” (THE REGENTS OF THE UNIVERSITY OF CALIFORNIA, priority 2016, dated 2020).
# Tested on: SKOV3
# Assay: Anti-cancer activity against ovarian cancer cells SKOV3 (cell killing in solution / in vitro cell proliferation)
# Format: cell-based
# Conditions: Homo sapiens, SK-OV-3, ovarian cancer cells SKOV3
# Protocol: Biotinylated LLS2 was synthesized in solution and loaded it onto a streptavidin-coated plate. The biotinylated LLS2 immobilized on the plate killed approximately 21% of SKOV3 ovarian cancer cells at 100 μM loading, 16% at 50 μM and 14% at 25 μM (FIG. 4). The killing effect of the LLS2 compound was also tested in solution. […] In addition, LLS2 can kill pancreatic cancer cell line XPA3, prostate cancer cell line PC3, colon cancer cell line HT29, breast cancer cell line MCF7 and lung cancer cell line A549 (FIG. 4).
row,SMILES,IC50 [µM]
1,"CC(=O)OCCN(CCOC(C)=O)c1ccc(-c2nc3cc(C(CC(N)=O)NC(=O)[C@@H](N)Cc4ccc(Cl)c(Cl)c4)ccc3n2CC23CC4CC(CC(C4)C2)C3)cc1 (stereo partly drawn) [LLS6, ((4-(1-(((1s,3R)-adamantan-1-yl)methyl)-5-(3-amino-1-((S)-2-amino-3-(3,4-dichlorophenyl)propanamido)-3-oxopropyl)-1H-benzo[d]imidazol-2-yl)phenyl)azanediyl)bis(ethane-2,1-diyl) Diacetate]",7.8
2,"NC(=O)CC(NCc1ccc(Cl)c(Cl)c1)c1ccc2c(c1)nc(-c1ccc(-c3cccc(CO)n3)cc1)n2CC12CC3CC(CC(C3)C1)C2 (stereo not drawn) [LLS7, 3-(1-(((1s,3s)-adamantan-1-yl)methyl)-2-(4-(6-(hydroxymethyl)pyridin-2-yl)phenyl)-1H-benzo[d]imidazol-5-yl)-3-((3,4-dichlorobenzyl)amino)propanamide]",> 50
3,"CC(=O)OCCN(CCOC(C)=O)c1ccc(-c2nc3cc(C(CC(N)=O)NCc4ccc(F)c(F)c4)ccc3n2CC23CC4CC(CC(C4)C2)C3)cc1 (stereo not drawn) [LLS8, ((4-(1-(((1s,3s)-adamantan-1-yl)methyl)-5-(3-amino-1-((3,4-difluorobenzyl)amino)-3-oxopropyl)-1H-benzo[d]imidazol-2-yl)phenyl)azanediyl)bis(ethane-2,1-diyl) Diacetate]",16.7
4,"CC(=O)OCCN(CCOC(C)=O)c1ccc(-c2nc3cc(C(CC(N)=O)NC(=O)[C@@H](N)Cc4ccc(F)c(F)c4)ccc3n2Cc2ccc(OC(F)(F)F)cc2)cc1 (stereo partly drawn) [LLS9, ((4-(5-(3-amino-1-((S)-2-amino-3-(3,4-difluorophenyl)propanamido)-3-oxopropyl)-1-(4-(trifluoromethoxy)benzyl)-1H-benzo[d]imidazol-2-yl)phenyl)azanediyl)bis(ethane-2,1-diyl) Diacetate]",17.6
5,"CC(=O)OCCN(CCOC(C)=O)c1ccc(-c2nc3cc(C(CC(N)=O)NC(=O)[C@@H](N)Cc4ccc(Cl)c(Cl)c4)ccc3n2Cc2cc(F)ccc2F)cc1 (stereo partly drawn) [LLS10, ((4-(5-(3-amino-1-((S)-2-amino-3-(3,4-dichlorophenyl)propanamido)-3-oxopropyl)-1-(2,5-difluorobenzyl)-1H-benzo[d]imidazol-2-yl)phenyl)azanediyl)bis(ethane-2,1-diyl) Diacetate]",36.4
6,"CC(=O)OCCN(CCOC(C)=O)c1ccc(-c2nc3cc(C(CC(N)=O)NC(=O)[C@@H](N)Cc4ccc(F)c(F)c4)ccc3n2Cc2ccc(F)c(F)c2)cc1 (stereo partly drawn) [LLS11, ((4-(5-(3-amino-1-((S)-2-amino-3-(3,4-difluorophenyl)propanamido)-3-oxopropyl)-1-(3,4-difluorobenzyl)-1H-benzo[d]imidazol-2-yl)phenyl)azanediyl)bis(ethane-2,1-diyl) Diacetate]",> 50
7,"NC(=O)CC(NC(=O)[C@@H](N)Cc1ccc(Cl)c(Cl)c1)c1ccc2c(c1)nc(-c1ccc(N(CCO)CCO)cc1)n2Cc1ccc(F)c(F)c1 (stereo partly drawn) [LLS12, (2S)-2-amino-N-(3-amino-1-(2-(4-(bis(2-hydroxyethyl)amino)phenyl)-1-(3,4-difluorobenzyl)-1H-benzo[d]imidazol-5-yl)-3-oxopropyl)-3-(3,4-dichlorophenyl)propanamide]",> 50
8,"NC(=O)CC(NC(=O)[C@@H](N)Cc1ccc(Cl)c(Cl)c1)c1ccc2c(c1)nc(-c1ccc(N(CCO)CCO)cc1)n2Cc1cc(F)ccc1F (stereo partly drawn) [LLS13, (2S)-2-amino-N-(3-amino-1-(2-(4-(bis(2-hydroxyethyl)amino)phenyl)-1-(2,5-difluorobenzyl)-1H-benzo[d]imidazol-5-yl)-3-oxopropyl)-3-(3,4-dichlorophenyl)propanamide]",> 50
9,"NC(=O)CC(NCc1c(Cl)cccc1Cl)c1ccc2c(c1)nc(-c1ccc(N(CCO)CCO)cc1)n2Cc1ccc(F)c(F)c1 (stereo not drawn) [LLS14, 3-(2-(4-(bis(2-hydroxyethyl)amino)phenyl)-1-(3,4-difluorobenzyl)-1H-benzo[d]imidazol-5-yl)-3-((2,6-dichlorobenzyl)amino)propanamide]",29.2
